Laboratory results taken from US10760110B2, “Antibiotic testing and screening system” (priority 2017, dated 2020).
Where two headings read alike, the source gives them in different places.

Columns and labels:
Format in all cases: cell-based
[1] = tested on: K. pneumoniae NVT1001 gyrA/parC and gyrA/parC/ramR mutants and revertants; assay: Etest MIC of quinolones, gyrA/parC and gyrA/parC/ramR mutants and their revertants (Table 11); conditions: Klebsiella pneumoniae
Excerpt: The allelic-exchange method was used to restore the wild-type gene in the K. pneumoniae NVT1001 mutants with constructed chromosome-mediated resistance mechanisms, as described by Tsai et al.^19 Briefly, a DNA fragment of the entire wild-type gene sequence along with flanking regions was amplified from K. pneumoniae NVT1001 using PCR with specific primers. The resulting PCR fragment was digested and then cloned into pUT-KB. For homologous recombination, this plasmid was transformed into E. coli S17-1 λpir^23 via electroporation and mobilized into the K. pneumoniae NVT1001 mutant via conjugation. […] After incubation in 20 mL BHI broth for 6 hours at 37° C. in the absence of kanamycin, the fully grown cultures were spread onto LB agar plates supplemented with 10% sucrose. After the double crossover occurred, the sucrose-resistant and kanamycin-susceptible colonies were selected, and the restoration of the wild-type gene was confirmed via DNA sequencing.
(§1) The MICs of antibiotics were determined using the Etest (Biodisk AB, Sweden) according to the manufacturer's instructions. The MICs from the Etest, which fall between standard two-fold dilutions, were rounded up to the next highest two-fold value. The MICs of ceftazidime and cefotaxime against K. pneumoniae NVT1001 harbouring the pACYC177 plasmid with blaOXA-48 were further determined using a broth microdilution test according to the recommendations of the CLSI,^25 and the results were interpreted according to the breakpoints established by the CLSI in 2017.^25 Meanwhile, due to the lack of CLSI breakpoints in 2016 and 2017, the results for cephalothin were interpreted according to the breakpoints established by the CLSI in 2015,^26 and the results for moxifloxacin were interpreted according to the breakpoints established by the EUCAST in 2017.^27

[2] = tested on: K. pneumoniae NVT1001 strains with QnrB, QnrS or AAC(6′)-Ib-cr plasmids; assay: Etest MIC of quinolones, GyrA/ParC mutations, ΔramR and/or QnrB, QnrS or AAC(6′)-Ib-cr (Table 12); conditions: Klebsiella pneumoniae
Procedure: DNA fragments of the resistance genes along with their flanking regions were amplified from clinical plasmids via PCR with specific primer pairs. The resulting PCR fragments were digested and then cloned into the plasmid pACYC177 or pACYC184. The resulting plasmids were then transformed into K. pneumoniae strain NVT1001 via electroporation. The recombinant bacteria were plated onto LB agar plates containing kanamycin (50 mg/L) or chloramphenicol (50 mg/L), and the presence of the cloned gene was confirmed via PCR and DNA sequencing.
as §1

[3] = tested on: A. baumannii KW1 and its GyrA/ParC mutants; assay: Etest MIC of quinolones, GyrA and/or ParC mutations (Table 17); conditions: Acinetobacter baumannii
Excerpt: DNA fragments of the entire adeR, adeS, gyrA and parC along with their flanking regions were amplified from A. baumannii KW1 using PCR with specific primer pairs and then cloned into plasmid pUT-KB. The QuikChange site-directed mutagenesis kit (Stratagene) was used to generate mutations in the adeR, adeS, gyrA and parC genes in the plasmids using the methods described by the manufacturer. For homologous recombination, plasmids containing mutations in the adeR, adeS, gyrA or parC gene were transformed into E. coli S17-1 λpir^23 via electroporation and mobilized into A. baumannii KW1 via conjugation. Single-crossover strains were selected from Luria-Bertani (LB) plates supplemented with cefotaxime (1 μg/ml) and kanamycin ([…]), as the growth of non-A. baumannii contaminants is suppressed by cefotaxime (1 μg/ml). The kanamycin-resistant transconjugants were selected and the insertion of plasmids was verified via PCR. After incubation in 20 ml brain heart infusion (BHI) broth for 6 hours in the absence of kanamycin at 37° C., the fully grown cultures were spread onto LB plates supplemented with 10% sucrose. After the double crossover occurred, the sucrose-resistant and kanamycin-susceptible colonies were selected, and the gene mutations were confirmed via PCR.
as §1

CCn1cc(C(=O)O)c(=O)c2cc(F)c(N3CCNCC3)cc21 [Norfloxacin, norfloxacin]
MIC ([1]; S83F/D87N/S80I mutant): 32 µg/mL
MIC ([1]; S83F/D87N/S80I::F83S/N87D/I80S revertant, read-out: MIC): 0.25 µg/mL
MIC ([1]; S83F/D87N/S80I::I80S revertant, read-out: MIC): 2 µg/mL
MIC ([1]; S83F/D87N/S80I::N87D revertant, read-out: MIC): 4 µg/mL
MIC ([1]; S83F/D87N/S80I::N87D/I80S revertant, read-out: MIC): 2 µg/mL
MIC ([1]; S83I/D87N/S80I mutant): 64 µg/mL
MIC ([1]; S83I/D87N/S80I::I80S revertant, read-out: MIC): 2 µg/mL
MIC ([1]; S83I/D87N/S80I::I83S/N87D/I80S revertant, read-out: MIC): 0.25 µg/mL
MIC ([1]; S83I/D87N/S80I::N87D revertant, read-out: MIC): 16 µg/mL
MIC ([1]; S83I/D87N/S80I::N87D/I80S revertant, read-out: MIC): 2 µg/mL
MIC ([1]; S83L/D87N/S80I mutant): 64 µg/mL
MIC ([1]; S83L/D87N/S80I::I80S revertant, read-out: MIC): 2 µg/mL
MIC ([1]; S83L/D87N/S80I::L83S/N87D/I80S revertant, read-out: MIC): 0.25 µg/mL
MIC ([1]; S83L/D87N/S80I::N87D revertant, read-out: MIC): 8 µg/mL
MIC ([1]; S83L/D87N/S80I::N87D/I80S revertant, read-out: MIC): 2 µg/mL
MIC ([1]; S83Y/D87N/S80I mutant): 32 µg/mL
MIC ([1]; S83Y/D87N/S80I::I80S revertant, read-out: MIC): 2 µg/mL
MIC ([1]; S83Y/D87N/S80I::N87D revertant, read-out: MIC): 4 µg/mL
MIC ([1]; S83Y/D87N/S80I::N87D/I80S revertant, read-out: MIC): 2 µg/mL
MIC ([1]; S83Y/D87N/S80I::Y83S/N87D/I80S revertant, read-out: MIC): 0.25 µg/mL
MIC ([1]; ΔramR/S83I/D87N/S80I mutant): > 256 µg/mL
MIC ([1]; ΔramR/S83I/D87N/S80I:: ramR/I83S revertant): 2 µg/mL
MIC ([1]; ΔramR/S83I/D87N/S80I:: ramR/I83S/I80S revertant): 1 µg/mL
MIC ([1]; ΔramR/S83I/D87N/S80I:: ramR/I83S/N87D revertant): 0.25 µg/mL
MIC ([1]; ΔramR/S83I/D87N/S80I::I83S/N87D/I80S revertant): 2 µg/mL
MIC ([1]; ΔramR/S83I/D87N/S80I::N87D revertant): 128 µg/mL
MIC ([1]; ΔramR/S83I/D87N/S80I::N87D/I80S revertant): 8 µg/mL
MIC ([1]; ΔramR/S83I/D87N/S80I::ramR/I83S/N87D/I80S): 0.25 µg/mL
MIC ([2]; AAC(6′)-Ib-cr on pACYC177, S83I mutant): 8 µg/mL
MIC ([2]; AAC(6′)-Ib-cr on pACYC177, S83I/D87N/S80I mutant): > 256 µg/mL
MIC ([2]; AAC(6′)-Ib-cr on pACYC177, S83I/S80I mutant): 128 µg/mL
MIC ([2]; AAC(6′)-Ib-cr on pACYC177, WT (NVT1001), read-out: MIC): 1 µg/mL
MIC ([2]; AAC(6′)-Ib-cr on pACYC177, ΔramR mutant): 8 µg/mL
MIC ([2]; AAC(6′)-Ib-cr on pACYC177, ΔramR/S83I mutant): 128 µg/mL
MIC ([2]; AAC(6′)-Ib-cr on pACYC177, ΔramR/S83I/D87N/S80I mutant): > 256 µg/mL
MIC ([2]; AAC(6′)-Ib-cr on pACYC177, ΔramR/S83I/S80I mutant): > 256 µg/mL
MIC ([2]; QnrB on pACYC177, S83I mutant): 8 µg/mL
MIC ([2]; QnrB on pACYC177, S83I/D87N/S80I mutant): > 256 µg/mL
MIC ([2]; QnrB on pACYC177, S83I/S80I mutant): > 256 µg/mL
MIC ([2]; QnrB on pACYC177, WT (NVT1001), read-out: MIC): 2 µg/mL
MIC ([2]; QnrB on pACYC177, ΔramR mutant): 16 µg/mL
MIC ([2]; QnrB on pACYC177, ΔramR/S83I mutant): 64 µg/mL
MIC ([2]; QnrB on pACYC177, ΔramR/S83I/D87N/S80I mutant): > 256 µg/mL
MIC ([2]; QnrB on pACYC177, ΔramR/S83I/S80I mutant): > 256 µg/mL
MIC ([2]; QnrS on pACYC177, S83I mutant): 8 µg/mL
MIC ([2]; QnrS on pACYC177, S83I/D87N/S80I mutant): 128 µg/mL
MIC ([2]; QnrS on pACYC177, S83I/S80I mutant): 64 µg/mL
MIC ([2]; QnrS on pACYC177, WT (NVT1001), read-out: MIC): 2 µg/mL
MIC ([2]; QnrS on pACYC177, ΔramR mutant): 32 µg/mL
MIC ([2]; QnrS on pACYC177, ΔramR/S83I mutant): 64 µg/mL
MIC ([2]; QnrS on pACYC177, ΔramR/S83I/D87N/S80I mutant): > 256 µg/mL
MIC ([2]; QnrS on pACYC177, ΔramR/S83I/S80I mutant): > 256 µg/mL
MIC ([2]; no supplemental plasmid, S83I mutant): 2 µg/mL
MIC ([2]; no supplemental plasmid, S83I/D87N/S80I mutant): 64 µg/mL
MIC ([2]; no supplemental plasmid, S83I/S80I mutant): 16 µg/mL
MIC ([2]; no supplemental plasmid, WT (NVT1001), read-out: MIC): 0.25 µg/mL
MIC ([2]; no supplemental plasmid, ΔramR mutant): 2 µg/mL
MIC ([2]; no supplemental plasmid, ΔramR/S83I mutant): 8 µg/mL
MIC ([2]; no supplemental plasmid, ΔramR/S83I/D87N/S80I mutant): > 256 µg/mL
MIC ([2]; no supplemental plasmid, ΔramR/S83I/S80I mutant): 128 µg/mL
MIC ([3]; E84K mutant): 4 µg/mL
MIC ([3]; G78C mutant): 4 µg/mL
MIC ([3]; KW1, read-out: MIC): 4 µg/mL
MIC ([3]; S80L mutant): 4 µg/mL
MIC ([3]; S80W mutant): 6 µg/mL
MIC ([3]; S80Y mutant): 4 µg/mL
MIC ([3]; S83L mutant): 24 µg/mL
MIC ([3]; S83L/E84K mutant): > 256 µg/mL
MIC ([3]; S83L/G78C mutant): > 256 µg/mL
MIC ([3]; S83L/S80L mutant): > 256 µg/mL
MIC ([3]; S83L/S80W mutant): > 256 µg/mL
MIC ([3]; S83L/S80Y mutant): > 256 µg/mL
